# Test system: 282377-053-R-J1-PDC complex spheroid viability
# Assay: Anticancer human tumor 282377-053-R-J1-PDC patient-derived colon adenocarcinoma cell line growth inhibition [RAS]
# Conditions: for IC50: curve of first compound; for viability, T/C: stronger effect = lower value
# How it was run: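 Agents were tested in combination matrices in half-log decrements from a top concentration at or near clinical Cmax (10 microM if undetermined). Targets were multi-cell spheroids of tumour lines plus HUVEC and MSC stromal cells.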
# [1] = second compound 0.000949 µM, first compound 0.0316 µM
# [2] = second compound 0.000949 µM, first compound 0.1 µM
# [3] = second compound 0.000949 µM, first compound 0.316 µM
# [4] = second compound 0.000949 µM, first compound 1 µM
# [5] = second compound 0.000949 µM, first compound 3.16 µM
# [6] = second compound 0.000949 µM, first compound 10 µM
# [7] = second compound 0.003 µM, first compound 0.0316 µM
# [8] = second compound 0.003 µM, first compound 0.1 µM
# [9] = second compound 0.003 µM, first compound 0.316 µM
# [10] = second compound 0.003 µM, first compound 1 µM
# [11] = second compound 0.003 µM, first compound 3.16 µM
# [12] = second compound 0.003 µM, first compound 10 µM
# [13] = second compound 0.00949 µM, first compound 0.0316 µM
# [14] = second compound 0.00949 µM, first compound 0.1 µM
# [15] = second compound 0.00949 µM, first compound 0.316 µM
# [16] = second compound 0.00949 µM, first compound 1 µM
# [17] = second compound 0.00949 µM, first compound 3.16 µM
# [18] = second compound 0.00949 µM, first compound 10 µM
# [19] = second compound 0.03 µM, first compound 0.0316 µM
# [20] = second compound 0.03 µM, first compound 0.1 µM
# [21] = second compound 0.03 µM, first compound 0.316 µM
# [22] = second compound 0.03 µM, first compound 1 µM
# [23] = second compound 0.03 µM, first compound 3.16 µM
# [24] = second compound 0.03 µM, first compound 10 µM
# [25] = second compound 0.0949 µM, first compound 0.0316 µM
# [26] = second compound 0.0949 µM, first compound 0.1 µM
# [27] = second compound 0.0949 µM, first compound 0.316 µM
# [28] = second compound 0.0949 µM, first compound 1 µM
# [29] = second compound 0.0949 µM, first compound 3.16 µM
# [30] = second compound 0.0949 µM, first compound 10 µM
# [31] = second compound 0.3 µM, first compound 0.0316 µM
# [32] = second compound 0.3 µM, first compound 0.1 µM
# [33] = second compound 0.3 µM, first compound 0.316 µM
# [34] = second compound 0.3 µM, first compound 1 µM
# [35] = second compound 0.3 µM, first compound 3.16 µM
# [36] = second compound 0.3 µM, first compound 10 µM
# 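Further: spheroids exposed to agents for seven days before readout.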
# 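Wherever viability, T/C is given: luminescence viability as percent of DMSO vehicle control wells.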
smiles,measurement,setting,value
C[C@@H](NC(=O)c1ncnc(N)c1Cl)c1ncc(C(=O)Nc2cc(C(F)(F)F)c(Cl)cn2)s1 + CCn1c(-c2cccnc2C(C)OC)c2c3cc(ccc31)N1CCOC(CC(NC(=O)C(C(C)C)N(C)C(=O)C3(F)CCN(C(=O)C#CC(C)(C)N(C)C)CC3)C(=O)N3CCCC(N3)C(=O)OCC(C)(C)C2)C1,IC50,second compound 0.000949 µM,> 10 µM
same,IC50,second compound 0.003 µM,> 10 µM
same,IC50,second compound 0.00949 µM,> 10 µM
same,IC50,second compound 0.03 µM,> 10 µM
same,IC50,second compound 0.0949 µM,> 10 µM
same,IC50,second compound 0.3 µM,> 10 µM
same,"viability, T/C",[1],111%
same,"viability, T/C",[2],118%
same,"viability, T/C",[3],119%
same,"viability, T/C",[4],90.6%
same,"viability, T/C",[5],80.8%
same,"viability, T/C",[6],64.5%
same,"viability, T/C",[7],112%
same,"viability, T/C",[8],92.7%
same,"viability, T/C",[9],99.8%
same,"viability, T/C",[10],82.1%
same,"viability, T/C",[11],63.6%
same,"viability, T/C",[12],57.3%
same,"viability, T/C",[13],93.7%
same,"viability, T/C",[14],89%
same,"viability, T/C",[15],78.5%
same,"viability, T/C",[16],109%
same,"viability, T/C",[17],70.1%
same,"viability, T/C",[18],58.9%
same,"viability, T/C",[19],92.8%
same,"viability, T/C",[20],117%
same,"viability, T/C",[21],91%
same,"viability, T/C",[22],84.3%
same,"viability, T/C",[23],75.8%
same,"viability, T/C",[24],81.1%
same,"viability, T/C",[25],83.2%
same,"viability, T/C",[26],93.6%
same,"viability, T/C",[27],76.5%
same,"viability, T/C",[28],73.1%
same,"viability, T/C",[29],71.8%
same,"viability, T/C",[30],71.3%
same,"viability, T/C",[31],80.7%
same,"viability, T/C",[32],99.1%
same,"viability, T/C",[33],96.8%
same,"viability, T/C",[34],86.2%
same,"viability, T/C",[35],81.4%
same,"viability, T/C",[36],66.9%
CC(Nc1ccc2c(c1)OCCn1cc(N3C(=O)OCC3C(F)F)nc1-2)C(N)=O (stereo unspecified) + CCn1c(-c2cc(N3CCN(C)CC3)cnc2C(C)OC)c2c3cc(ccc31)-c1csc(n1)CC(NC(=O)C1CC1C)C(=O)N1CCCC(N1)C(=O)OCC(C)(C)C2,IC50,second compound 0.000949 µM,> 10 µM
same,IC50,second compound 0.003 µM,> 10 µM
same,IC50,second compound 0.00949 µM,> 10 µM
same,IC50,second compound 0.03 µM,> 10 µM
same,IC50,second compound 0.0949 µM,> 10 µM
same,IC50,second compound 0.3 µM,> 10 µM
same,"viability, T/C",[1],95.5%
same,"viability, T/C",[2],104%
same,"viability, T/C",[3],81.1%
same,"viability, T/C",[4],80%
same,"viability, T/C",[5],74.3%
same,"viability, T/C",[6],77.4%
same,"viability, T/C",[7],96.5%
same,"viability, T/C",[8],104%
same,"viability, T/C",[9],95.2%
same,"viability, T/C",[10],81.8%
same,"viability, T/C",[11],75.3%
same,"viability, T/C",[12],70.6%
same,"viability, T/C",[13],103%
same,"viability, T/C",[14],83.4%
same,"viability, T/C",[15],109%
same,"viability, T/C",[16],96.5%
same,"viability, T/C",[17],84.5%
same,"viability, T/C",[18],68.3%
same,"viability, T/C",[19],86.6%
same,"viability, T/C",[20],83.2%
same,"viability, T/C",[21],84.1%
same,"viability, T/C",[22],80.3%
same,"viability, T/C",[23],82.2%
same,"viability, T/C",[24],70.7%
same,"viability, T/C",[25],90.6%
same,"viability, T/C",[26],82.9%
same,"viability, T/C",[27],93.7%
same,"viability, T/C",[28],95.3%
same,"viability, T/C",[29],82.9%
same,"viability, T/C",[30],98.7%
same,"viability, T/C",[31],106%
same,"viability, T/C",[32],78.9%
same,"viability, T/C",[33],94.3%
same,"viability, T/C",[34],104%
same,"viability, T/C",[35],84.3%
same,"viability, T/C",[36],87.9%
CCc1c2c(nc3ccc(O)cc13)-c1cc3c(c(=O)n1C2)COC(=O)[C@]3(O)CC + C#Cc1c(F)ccc2cc(O)cc(-c3ncc4c(N5CC6CCC(C5)N6)nc(OCC56CCCN5CC(F)C6)nc4c3F)c12,IC50,second compound 0.0316 µM,> 0.3 µM
same,IC50,second compound 0.1 µM,> 0.3 µM
same,IC50,second compound 0.316 µM,> 0.3 µM
same,IC50,second compound 1 µM,> 0.3 µM
same,IC50,second compound 3.16 µM,> 0.3 µM
same,IC50,second compound 10 µM,> 0.3 µM
same,"viability, T/C","second compound 0.0316 µM, first compound 0.000949 µM",97%
same,"viability, T/C","second compound 0.0316 µM, first compound 0.003 µM",131%
same,"viability, T/C","second compound 0.0316 µM, first compound 0.00949 µM",120%
same,"viability, T/C","second compound 0.0316 µM, first compound 0.03 µM",96.8%
same,"viability, T/C","second compound 0.0316 µM, first compound 0.0949 µM",88.2%
same,"viability, T/C","second compound 0.0316 µM, first compound 0.3 µM",53%
same,"viability, T/C","second compound 0.1 µM, first compound 0.000949 µM",113%
same,"viability, T/C","second compound 0.1 µM, first compound 0.003 µM",122%
same,"viability, T/C","second compound 0.1 µM, first compound 0.00949 µM",130%
same,"viability, T/C","second compound 0.1 µM, first compound 0.03 µM",95.8%
same,"viability, T/C","second compound 0.1 µM, first compound 0.0949 µM",84.5%
same,"viability, T/C","second compound 0.1 µM, first compound 0.3 µM",61.4%
same,"viability, T/C","second compound 0.316 µM, first compound 0.000949 µM",117%
same,"viability, T/C","second compound 0.316 µM, first compound 0.003 µM",128%
same,"viability, T/C","second compound 0.316 µM, first compound 0.00949 µM",109%
same,"viability, T/C","second compound 0.316 µM, first compound 0.03 µM",101%
same,"viability, T/C","second compound 0.316 µM, first compound 0.0949 µM",85.6%
same,"viability, T/C","second compound 0.316 µM, first compound 0.3 µM",55.6%
same,"viability, T/C","second compound 1 µM, first compound 0.000949 µM",108%
same,"viability, T/C","second compound 1 µM, first compound 0.003 µM",104%
same,"viability, T/C","second compound 1 µM, first compound 0.00949 µM",113%
same,"viability, T/C","second compound 1 µM, first compound 0.03 µM",95.3%
same,"viability, T/C","second compound 1 µM, first compound 0.0949 µM",80.1%
same,"viability, T/C","second compound 1 µM, first compound 0.3 µM",61%
same,"viability, T/C","second compound 3.16 µM, first compound 0.000949 µM",115%
same,"viability, T/C","second compound 3.16 µM, first compound 0.003 µM",127%
same,"viability, T/C","second compound 3.16 µM, first compound 0.00949 µM",125%
same,"viability, T/C","second compound 3.16 µM, first compound 0.03 µM",100%
same,"viability, T/C","second compound 3.16 µM, first compound 0.0949 µM",97.5%
same,"viability, T/C","second compound 3.16 µM, first compound 0.3 µM",66.3%
same,"viability, T/C","second compound 10 µM, first compound 0.000949 µM",97.1%
same,"viability, T/C","second compound 10 µM, first compound 0.003 µM",112%
same,"viability, T/C","second compound 10 µM, first compound 0.00949 µM",116%
same,"viability, T/C","second compound 10 µM, first compound 0.03 µM",102%
same,"viability, T/C","second compound 10 µM, first compound 0.0949 µM",87.9%
same,"viability, T/C","second compound 10 µM, first compound 0.3 µM",63.5%

# Reference: PubChem BioAssay AID2060905 (Molecular Pharmacology Branch, DTP, NCI, 2025)
